According to US20230263851A1, “PROTECTIVE FORMULATIONS” (priority 2022, published 2023):

Test system: upside-down jellyfish, family Cassiopeidae
Test: In vivo field study: perceived stinging sensation after contact with upside-down jellyfish
Conditions: for Sting score, Left calf: skin location left calf; for Average Sting Score: average over tested skin locations; for Sting score, Lower arm, left: perceived sting: 0 no sting, compound in SPF15 TeekaTan oil-in-water sunscreen base, skin location lower arm; for Reduction of the stinging sensation (in words): summary of the field study; for Sting score, Upper arm, left: skin location upper arm
Description: An in-vivo field study was performed using upside-down jellyfish, family Cassiopeidae. Rubidium iodide and dl-menthol were compared to lanthanide salts and another alkali salt, cesium iodide, for their ability to reduce the dermal irritation following contact with stinging Cnidaria. The base formulation was a commercial SPF15 “TeekaTan™” chemical oil-in-water sunscreen. The null was bare skin. The test subjects reported their perceived stinging sensation from the venomous cassiosomes as no sting (score 0), mild sting (score 1), definite sting (score 2).

[1] = 0 no sting, 1 mild sting, 2 definite sting, SPF15 sunscreen base

SMILES | Sting score, Left calf [1] | Sting score, Left cheek (face) (0 no sting, 1 mild sting, 2 definite sting, SPF15 sunscreen base, skin location left cheek (face)) | Sting score, Left side of chest, underarm (0 no sting, 1 mild sting, 2 definite sting, SPF15 sunscreen base, skin location left side of chest, underarm) | Sting score, Left side of lips, upper and lower (0 no sting, 1 mild sting, 2 definite sting, SPF15 sunscreen base, skin location left side of lips, upper and lower) | Sting score, Right arm joint (0 no sting, 1 mild sting, 2 definite sting, SPF15 sunscreen base, skin location right arm joint) | Sting score, Right cheek (face) (0 no sting, 1 mild sting, 2 definite sting, SPF15 sunscreen base, skin location right cheek (face)) | Sting score, Right side of chest, underarm (0 no sting, 1 mild sting, 2 definite sting, SPF15 sunscreen base, skin location right side of chest, underarm) | Sting score, Stomach (0 no sting, 1 mild sting, 2 definite sting, SPF15 sunscreen base, skin location stomach) | Average Sting Score [1] | Sting score, Lower arm, left (1 mild sting, 2 definite sting) | Reduction of the stinging sensation (in words) | Sting score, Left arm joint (0 no sting, 1 mild sting, 2 definite sting, SPF15 sunscreen base, skin location left arm joint) | Sting score, Upper arm, left [1]
CC(C)[C@@H]1CC[C@@H](C)C[C@H]1O (racemic) [DL-Menthol, DL menthol] | 0 | 0 | 0 | 0 | 0.75 | 0 | 0 | 0 | 0.23 | 0 | second most effective compound tested | – | –
[I-].[Rb+] [RuI, rubidium iodide] | 0 | – | – | – | – | – | – | – | 0.00 | 0 | – | 0 | 0
[Cs+].[I-] [CsI, cesium iodide, reference compound] | – | – | – | – | – | – | – | – | 2.00 | – | did not appreciably reduce the stinging sensation | – | 2
[Cl][Pr]([Cl])[Cl] [PrCl3, reference compound] | – | – | – | – | – | – | – | – | 1.00 | 2 | – | – | 0
[Cl][Nd]([Cl])[Cl] [NdCl3, reference compound] | – | – | – | – | – | – | – | – | 2.00 | 2 | – | – | –
